SMILES strings stand for the structures. A value given as a limit tells only on which side of the number the result lay.

The nature of data set [1]: Ratio of half life in human liver microsomes in presence of BNPP to t1/2 in human liver microsomes absence of BNPP. In kind it is ADME, Microsome.
A short description of data set [2]: Metabolic stability in human liver microsomes assessed as half life in presence of NADPH measured upto 60 mins by LC-MS/MS analysis. In kind it is ADME, Microsome. For orientation: Liver microsomes are vesicles of endoplasmic reticulum, rich in cytochrome P450 enzymes.
Data set [3] can be described thus: Metabolic stability in human liver microsomes assessed as half life in presence of NADPH measured upto 60 mins in presence of 10 uM sulfaphenazole by LC-MS/MS analysis. In kind it is ADME, Microsome. The following applies: with sulfaphenazole.
A short description of data set [4]: Metabolic stability in human liver microsomes assessed as half life in presence of NADPH measured upto 60 mins in presence of 2 uM ketoconazole by LC-MS/MS analysis. It is filed as ADME, Microsome. The settings on record: with ketoconazole.
Data set [5] in a line: Metabolic stability in human liver microsomes assessed as intrinsic clearance measured per mg of protein in presence of NADPH measured upto 60 mins in presence of 10 uM montelukast by LC-MS/MS analysis. In kind it is ADME, Microsome. The settings on record: 1 h.
The nature of data set [6]: Metabolic stability in human liver microsomes assessed as intrinsic clearance measured per mg of protein in presence of NADPH measured upto 60 mins in presence of 10 uM sulfaphenazole by LC-MS/MS analysis. It is filed as ADME, Microsome. The following applies: 1 h.
Data set [7] in a line: Metabolic stability in human liver microsomes assessed as half life in presence of NADPH measured upto 60 mins in presence of 50 uM furafylline by LC-MS/MS analysis. In kind it is ADME, Microsome. The following applies: with furafylline.
A short description of data set [8]: Metabolic stability in human liver microsomes assessed as half life in presence of NADPH measured upto 60 mins in presence of 5 mM BNPP carboxylesterase inhibitor by LC-MS/MS analysis. The following applies: with BNPP (carboxylesterase inhibitor). It is filed as ADME, Microsome.
Data set [9] is described as follows: Stability in human plasma assessed as half life at pH 7.4 measured upto 5 hrs by LC-MS/MS analysis. In kind it is ADME, cell-free.
A short description of data set [10]: Metabolic stability in human liver microsomes assessed as half life in presence of NADPH measured upto 60 mins in presence of 2.5 mM ABT cytochrome P450 inhibitor by LC-MS/MS analysis. In kind it is ADME, Microsome. The settings on record: with ABT (cytochrome P450 inhibitor).
Data set [11] can be described thus: Metabolic stability in human liver microsomes assessed as intrinsic clearance measured per mg of protein in presence of NADPH measured upto 60 mins in presence of 50 uM furafylline by LC-MS/MS analysis. The settings on record: 1 h. In kind it is ADME, Microsome.
Data set [12] can be described thus: Metabolic stability in human liver microsomes assessed as intrinsic clearance measured per mg of protein in presence of NADPH measured upto 60 mins in presence of 2 uM ticlopidine by LC-MS/MS analysis. In kind it is ADME, Microsome. The settings on record: 1 h.
The nature of data set [13]: Metabolic stability in human liver microsomes assessed as intrinsic clearance measured per mg of protein in presence of NADPH measured upto 60 mins in presence of 2 uM ketoconazole by LC-MS/MS analysis. It is filed as ADME, Microsome. The settings on record: 1 h.
The nature of data set [14]: Ratio of half life in human liver microsomes in presence of ABT to t1/2 in human liver microsomes absence of ABT. In kind it is ADME, Microsome.
The nature of data set [15]: Metabolic stability in human liver microsomes assessed as half life in presence of NADPH measured upto 60 mins in presence of 8 uM quinidine by LC-MS/MS analysis. It is filed as ADME, Microsome. The following applies: with quinidine.
Data set [16] can be described thus: Metabolic stability in human liver microsomes assessed as intrinsic clearance measured per mg of protein in presence of NADPH measured upto 60 mins in presence of 8 uM quinidine by LC-MS/MS analysis. It is filed as ADME, Microsome. The settings on record: 1 h.
Data set [17] can be described thus: Metabolic stability in human liver microsomes assessed as half life in presence of NADPH measured upto 60 mins in presence of 10 uM montelukast by LC-MS/MS analysis. It is filed as ADME, Microsome. The following applies: with montelukast.
Data set [18] can be described thus: Metabolic stability in human liver microsomes assessed as half life in presence of NADPH measured upto 60 mins in presence of 2 uM ticlopidine by LC-MS/MS analysis. It is filed as ADME, Microsome. The following applies: with ticlopidine.

As a reminder, the half-life is the time in which the quantity being followed falls by half. With `CNC(=O)SCCCCCCC(=O)Nc1nc(-c2ccc(F)cc2)cs1`, the Ratio is 8.53 in [1] and 10.62 in data set [14]. Further, the half-life was 4.81 min in data set [2]; 7.61 min in data set [3]; 18.2 min in data set [4]; 7.1 min in data set [7]; 54.9 min in data set [8]; above 300 min in [9]. Also, the half-life in [10] worked out at 68.3 min; in data set [15], 7.28 min; in data set [17], 10.4 min; in data set [18], 7.42 min. In addition, the CLint in data set [5] came out at 203 µL/min/mg; in data set [6], 276 µL/min/mg; in data set [11], 296 µL/min/mg; in [12], 283 µL/min/mg; in data set [13], 115 µL/min/mg; in data set [16] it was 288 µL/min/mg.
Consider `CC(C)N(C(=O)SCCCCCCC(=O)Nc1nc(-c2ccc(F)cc2)cs1)C(C)C`, for which the results for the Ratio in data set [1] and in data set [14] were 2.03 and 9.6, respectively. In addition, the half-life is 1.27 min in data set [2]; 1.53 min in data set [3]; 31.5 min in data set [4]; 1.52 min in data set [7]; 17.1 min in data set [8]; above 300 min in [9]. Further, the half-life in data set [10] was determined as 81.1 min; in data set [15] it was 1.15 min; in data set [17], 1.25 min; in [18], 1.39 min. Besides, the CLint in [5] was 1680 µL/min/mg; in data set [6] it was 1370 µL/min/mg; in data set [11] it was 1380 µL/min/mg; in data set [12] it was 1520 µL/min/mg; in [13] it was 67 µL/min/mg; in data set [16] it was 1840 µL/min/mg.
For `COP(=O)(OC)SCCCCCCC(=O)Nc1nc(-c2ccc(F)cc2)cs1`, the Ratio worked out at 16.8 in data set [1] and 4.46 in [14]. Moreover, the half-life was 9.85 min in data set [2], 165 min in data set [8], above 300 min in data set [9] and 44 min in data set [10].
For the compound `CCCCCCSSCCCCCCC(=O)Nc1nc(-c2ccc(F)cc2)cs1`, the half-life in data set [2] was 11.9 min; in [9], above 300 min.
For `O=C(CCCCCCSC(=O)N1CCCC1)Nc1nc(-c2ccc(F)cc2)cs1`, the values for the half-life in data set [2] and in [9] were 11.4 min and above 300 min, respectively.
In the same order, the values of `CC(C)(C)C(=O)SCCCCCCC(=O)Nc1nc(-c2ccc(F)cc2)cs1` are 4.11 min and above 300 min.
Regarding `CC(C)(C)C(=O)NCSCCCCCCC(=O)Nc1nc(-c2ccc(F)cc2)cs1`, the values for the Ratio in data set [1] and in data set [14] were 13.27 and 101.23, respectively. The half-life is 1.75 min in [2]; 1.41 min in [3]; 28.5 min in [4]; 1.41 min in [7]; 27.6 min in data set [8]; above 300 min in data set [9]. The half-life is 211 min in data set [10], 1.43 min in data set [15], 1.84 min in [17] and 1.38 min in data set [18]. The CLint in data set [5] worked out at 1140 µL/min/mg; in [6], 1490 µL/min/mg; in [11] it was 1490 µL/min/mg; in data set [12] it was 1520 µL/min/mg; in data set [13], 74 µL/min/mg; in data set [16], 1470 µL/min/mg.
As for `COc1ccc(C(=O)SCCCCCCC(=O)Nc2nc(-c3ccc(F)cc3)cs2)cc1`, the half-life is 10.8 min in data set [2] and above 300 min in [9].
For the compound `CC(C)(C)SSCCCCCCC(=O)Nc1nc(-c2ccc(F)cc2)cs1`, the Ratio in [1] came to 1.26; in [14], 2.13. The half-life in data set [2] was 12.5 min; in [8], 15.8 min; in [9] it was above 300 min; in data set [10], 26.7 min.
Take `O=C(CCCCCCSC(=O)c1ccccc1)Nc1nc(-c2ccc(F)cc2)cs1`: the figures for the Ratio in [1] and in data set [14] were 4.63 and 0.74, respectively. For the same compound, the half-life was 2.34 min in data set [2], 36.3 min in data set [8], above 300 min in data set [9] and 5.78 min in data set [10].
As to `O=C(CCCCCCSC(=O)c1ccc2c(c1)OCCO2)Nc1nc(-c2ccc(F)cc2)cs1`, the half-life in data set [2] was 11.4 min; in [9], above 300 min.
With `CCCCSSCCCCCCC(=O)Nc1nc(-c2ccc(F)cc2)cs1`, the Ratio in [1] was 1.66; in data set [14], 2.78. Moreover, the half-life in data set [2] is 6.08 min; in data set [8], 10.1 min; in data set [9], above 300 min; in [10] it was 16.9 min.
Consider `CCOP(=O)(OCC)SCCCCCCC(=O)Nc1nc(-c2ccc(F)cc2)cs1`, for which the results for the Ratio in data set [1] and in data set [14] were 18.22 and 8.2, respectively. Besides, the half-life in data set [2] is 2.14 min; in data set [8] it was 54.5 min; in data set [9] it was above 300 min; in data set [10], 24.5 min.
For the compound `CN(C)C(=O)SCCCCCCC(=O)Nc1nc(-c2ccc(F)cc2)cs1`, the Ratio came out at 5.32 in data set [1] and 26.54 in data set [14]. For the same compound, the half-life in data set [2] is 3.09 min; in [3], 2.94 min; in data set [4], 5.99 min; in data set [7] it was 2.98 min; in data set [8], 22.8 min; in data set [9], above 300 min. For the same compound, the half-life in data set [10] worked out at 114 min; in data set [15] it was 3.11 min; in [17], 5.76 min; in data set [18], 2.85 min. In addition, the CLint worked out at 365 µL/min/mg in [5]; 716 µL/min/mg in data set [6]; 708 µL/min/mg in data set [11]; 737 µL/min/mg in data set [12]; 351 µL/min/mg in data set [13]; 675 µL/min/mg in data set [16].
As to `O=C(CCCCCCSSCCCCCCC(=O)Nc1nc(-c2ccc(F)cc2)cs1)Nc1nc(-c2ccc(F)cc2)cs1`, in [9], the half-life was 247 min.
Consider `COC(=O)SCCCCCCC(=O)Nc1nc(-c2ccc(F)cc2)cs1`, for which the Ratio in [1] amounted to 35.87; in data set [14], 1.09. For the same compound, the half-life is 0.79 min in data set [2], 28.2 min in [8], above 300 min in [9] and 0.85 min in data set [10].
As for `CCCCCNC(=O)SCCCCCCC(=O)Nc1nc(-c2ccc(F)cc2)cs1`, the half-life was 5.5 min in data set [2] and above 300 min in data set [9].
For `O=C(CCCCCCSSC1CCCCC1)Nc1nc(-c2ccc(F)cc2)cs1`, the half-life was 18.9 min in data set [2] and above 300 min in [9].
With `O=C(CCCCCCSC(=O)c1ccc(C(F)(F)F)cc1)Nc1nc(-c2ccc(F)cc2)cs1`, the Ratio in [1] is reported as 2.52; in data set [14], 0.66. The half-life is 5.77 min in data set [2], 14.5 min in data set [8], above 300 min in [9] and 3.82 min in [10].
Consider `CCC(=O)SCCCCCCC(=O)Nc1nc(-c2ccc(F)cc2)cs1`, for which the Ratio in data set [1] turned out to be 7.77; in [14], 0.48. Further, the half-life in data set [2] was 1.17 min; in [8], 9.11 min; in [9], 160 min; in [10], 0.56 min.
As for `O=C(CCCCCCSP(=O)(c1ccccc1)c1ccccc1)Nc1nc(-c2ccc(F)cc2)cs1`, the results for the Ratio in data set [1] and in data set [14] were 26.7 and 37.24, respectively. Further, the half-life in data set [2] was 0.92 min; in data set [8] it was 24.5 min; in data set [9] it was above 300 min; in data set [10] it was 34.2 min.
In the case of `CC(=O)SCCCCCCC(=O)Nc1nc(-c2ccc(F)cc2)cs1`, the Ratio in data set [1] is given as 10.1; in data set [14], 0.93. Further, the half-life was 0.57 min in [2], 5.78 min in [8], 151 min in [9] and 0.53 min in data set [10].
With `O=C(CCCCCCSC(=O)Cc1ccccc1)Nc1nc(-c2ccc(F)cc2)cs1`, the half-life in data set [2] is 2.14 min; in data set [9], above 160 min.
In the case of `CCCCC(=O)SCCCCCCC(=O)Nc1nc(-c2ccc(F)cc2)cs1`, the half-life in data set [9] was 179 min.

The record behind these values is ChEMBL document CHEMBL6114955, “Probing into the plasma stability and microsomal stability of thiol-based prodrug derivatives: Using IYS-15, an HDAC inhibitor as the model thiol” (Bioorg Med Chem, 2025).
